Laboratory results: BindingDB's records for doi:10.1021/jm0704595 (University of Turin, 2007)
Several values for one entry are separate records, joined by “and”; a condition that tells them apart may be missing. Identical values can stand only once.

Experiment: Agonist activity at adrenergic beta2 receptor in guinea pig tracheal rings assessed as myorelaxing activity on carbachol-induced contraction in presence of propranolol

Cc1c(COc2ccc(CC(C)NCC(O)c3cc(O)cc(O)c3)cc2)no[n+]1[O-] (stereo unspecified) [5-(1-hydroxy-2-{1-methyl-2-[4-(4-methyl-5-oxy-furazan-3-ylmethoxy)-phenyl]-ethylamino}-ethyl)-benzene-1,3-diol]
EC50: 55 µM and 54 µM
